From PMC9322052, “Synthesis and Biological Activity Screening of Newly Synthesized Trimethoxyphenyl-Based Analogues as Potential Anticancer Agents” (Molecules, 2022)

Key:
β-tubulin = test: Tubulin polymerization inhibition (beta-tubulin ELISA in HepG2 cells); assay type: cell-based, human; details: HepG2 cells, each compound at its IC50 concentration (9 1.38, 10 2.52, 11 3.21, podo 2.08 μM), ELISA
Method: The selected candidates were tested at a concentration equal to their IC50 concentration dose value. […] See Section 3.3.2 in Supplementary Material. […] page 18: 3.3. Biological studies 3.3.1. Cytotoxic activity evaluation To measure the cytotoxic activity of the synthesized derivatives 2a-11 in hepatocel- lular carcinoma (HepG2) cell line (ATCC Cat No. HB-8065) as well as normal human liver cell line HL-7702 (ATCC Cat. No. 77402), cell viability assay was assessed using MTT assay method. Cells at density of 1 x 104 were seeded in a 96-well plate at 37 °C for 24 h under 5% CO2. After incubation, the cells were treated with different concentrations of the test compounds 2a-11 and incubated for 24 h, then 20 μl of MTT solution at 5 mg/mL was […] Dimethyl sulphoxide (DMSO) in volume of 100 μl was added to each well to dissolve the purple formazan that had formed. The color […] of the formazan product, which represents the growth condition of the cells, is quan- […] by using an ELISA plate reader (EXL 800, USA) at 570 nm absorbance. The experi- mental conditions were carried out with at least three replicates, and the experiments were repeated at least three times. 3.3.2. Tubulin inhibitions Assay […] according to the manufacturer's instructions using # abcam Human Beta-tubulin […] ELISA Kit ab245722. 3.3.3. Cell cycle analysis of compound 9 Cell cycle analysis in HepG2 cells was investigated using fluorescent Annexin V- FITC/ PI detection kit (BioVision EZCellTM Cell Cycle Analysis Kit Catalog #K920) by flow cytometry assay. […] twice in PBS. After that, the cells were incubated at 37 °C and 5% CO2. […] Apoptosis assay for compound 9 Apoptosis in HepG2 cells was investigated using fluorescent Annexin V-FITC/ PI de- tection kit (BioVision Annexin V-FITC Apoptosis Detection Kit, Catalog #: K101) by flow cy- tometry assay. […] The samples were immediately analyzed using FACS Calibur flow cytometer (Becton and Dickinson, Heidelberg, Germany). 3.3.5. Measurement of mitochondrial membrane potential (MMP) for compound 9 MMP was measured by FACS analysis using abcam ab113852TMRE Mitochondrial Membrane Potential Assay Kit with DiOC2(3) staining using MitoProbeTM DiOC2(3) Assay Kit for Flow Cytometry (M34150). After treatment with compound 9 at its IC50 concentra- tion, cells were stained with DiOC2(3) dye for 30 min in the incubator, then harvested and washed with PBS. […] The samples were immediately analyzed using cell Quest software. […] Effect on p53, Bax and Bcl-2 p53, Bax and Bcl2 enzyme activities in HepG2 cells were detected in the presence of com- pound 9 at its IC50 concentration (μM). The levels of the tumor suppressor gene p53, apoptotic markers Bax as well as the anti-apoptotic marker Bcl-2 were assessed using p53 ELISA kit, Human Bax ELISA kit and Bcl-2 Elisa kit. […]

[1] = system: normal liver cell line HL-7702; test: MTT cytotoxicity assay, normal liver cells; assay type: cell-based; details: Homo sapiens, L02, 24 h treatment, mean ± SE
Method: All the newly synthesized analogs were evaluated for their in vitro cytotoxicity against the hepatocellular carcinoma HepG2 cell line. Podo was utilized as a reference control in the current study. […] The N-phenyl triazinone derivative 9 was further investigated for its cytotoxic effects against normal liver cell line HL-7702.
MTT colorimetric assay was carried out to investigate the impact of the newly synthesized compounds 2–11 on hepatocellular carcinoma (HepG2) and normal liver cell line (HL-7702) cell lines. See Section 3.3.1 in Supplementary Material.
3.3.1. Cytotoxic activity evaluation
To measure the cytotoxic activity of the synthesized derivatives 2a-11 in hepatocel-lular carcinoma (HepG2) cell line (ATCC Cat No. HB-8065) as well as normal human liver cell line HL-7702 (ATCC Cat. No. 77402), cell viability assay was assessed using MTT assay method. Cells at density of 1 x 104 were seeded in a 96-well plate at 37 °C for 24 h under 5% CO2. […] The color inten-sity of the formazan product, which represents the growth condition of the cells, is quan-tified by using an ELISA plate reader (EXL 800, USA) at 570 nm absorbance. […]
Compounds 9, 10 and 11 were evaluated for their tubulin inhibitory activity levels according to the manufacturer’s instructions using # abcam Human Beta-tubulin simplestep […]
3.3.5. […] The samples were immediately analyzed using cell […]

With `COc1ccc(C2=N/C(=C\c3cc(OC)c(OC)c(OC)c3)C(=O)NN2c2ccccc2)cc1OC` [Compound 9, (Z)-3-(3,4-Dimethoxyphenyl)-2-Phenyl-5-(3,4,5-Trimethoxybenzylidene)-1,2-Dihydro-1,2,4-Triazin-6(5H)-one] the “β-tubulin polymerization inhibition percentage” value (β-tubulin) was 86.73% and the IC50 [1] was 29.1 ± 2.03 µM.
